Measured values published in PubChem BioAssay (NCI).
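Compound exposure: 48 hours, 5 concentrations, 96-well plates. GI50 is the concentration that inhibits growth by half. TGI denotes the concentration required for complete inhibition of growth.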

How the values were obtained:
Assay in all cases: inhibition of tumour cell growth, NCI panel, 48 h
ACHN renal = test system: ACHN renal
HCT-116 colon = test system: HCT-116 colon
M14 melanoma = test system: M14 melanoma
HOP-92 NSCLC = test system: HOP-92 NSCLC
A498 renal = test system: A498 renal
EKVX NSCLC = test system: EKVX NSCLC
UO-31 renal = test system: UO-31 renal
HCT-15 colon = test system: HCT-15 colon
SK-MEL-2 melanoma = test system: SK-MEL-2 melanoma
MOLT-4 leukemia = test system: MOLT-4 leukemia

Row | Structure (SMILES) | TGI (ACHN renal) | TGI (HCT-116 colon) | TGI (M14 melanoma) | TGI (HOP-92 NSCLC) | TGI (A498 renal) | TGI (EKVX NSCLC) | TGI (UO-31 renal) | TGI (HCT-15 colon) | TGI (SK-MEL-2 melanoma) | TGI (MOLT-4 leukemia) | GI50 (HCT-116 colon) | GI50 (HOP-92 NSCLC) | GI50 (A498 renal)
1 | O=C1c2ccccc2-c2nnc(-c3ccc(Cl)cc3)cc21 | > 10 µM | > 10 µM | > 10 µM | > 10 µM | > 10 µM | > 10 µM | > 10 µM | > 10 µM | > 10 µM | > 10 µM | – | – | –
2 | COc1ccc(-c2nnc(-c3c(C)n(C)n(-c4ccccc4)c3=O)o2)cc1 | > 100 µM | > 100 µM | > 100 µM | > 100 µM | > 100 µM | > 100 µM | > 100 µM | > 100 µM | > 100 µM | > 100 µM | – | – | –
3 | C/C(=N\NC(=O)c1cccnc1)c1cccc(/C(C)=N/NC(=O)c2cccnc2)n1.CC(=O)[O-].CC(=O)[O-].[Zn+2] | > 68 µM | > 100 µM | > 47.2 µM | 6.47 µM | > 100 µM | > 100 µM | > 100 µM | > 100 µM | > 54.9 µM | 11.4 µM | 1.68 µM | 1.55 µM | > 100 µM
4 | O=C(Cn1c(=O)oc2ccc(C(=O)c3ccccc3Cl)cc21)c1ccc([N+](=O)[O-])cc1 | > 100 µM | 35.6 µM | 47.5 µM | > 100 µM | > 100 µM | > 100 µM | > 100 µM | 65.4 µM | 41.6 µM | > 100 µM | – | – | –
5 | CNc1ncnc2c1nnn2C | > 100 µM | > 100 µM | > 100 µM | > 100 µM | > 100 µM | > 100 µM | > 100 µM | > 100 µM | > 100 µM | > 100 µM | – | – | –
6 | CN1CCN(/C(N)=C(\C#N)C(=O)Nc2ccccc2)CC1 | > 100 µM | > 100 µM | > 100 µM | > 100 µM | > 100 µM | > 100 µM | > 100 µM | > 100 µM | > 100 µM | > 100 µM | – | – | –
7 | COc1cc(O)c2c(=O)c(OC)c(-c3ccc4c(c3)OCO4)oc2c1OC | > 50 µM | > 50 µM | > 50 µM | 44.2 µM | > 50 µM | > 50 µM | > 50 µM | > 50 µM | > 50 µM | > 50 µM | – | – | –
8 | CCCCCCCCCCCCCCCCCCOc1ccc(/C=C/C2=[N+](CCCl)CCO2)cc1 | > 100 µM | > 100 µM | > 100 µM | > 100 µM | > 100 µM | > 100 µM | > 100 µM | > 100 µM | > 100 µM | > 100 µM | – | – | –
9 | O=[N+]([O-])c1ccc2nc(/C=C(\O)c3ccccc3)c(/C=C(\O)c3ccccc3)nc2c1 | > 100 µM | > 37.8 µM | > 67.3 µM | 5.63 µM | > 86.2 µM | > 100 µM | 31.6 µM | > 100 µM | > 82.2 µM | 40.5 µM | – | 0.195 µM | –
10 | O=C(NC12CC3CC(CC(C3)C1)C2)C(=O)c1c[nH]c2ccc([N+](=O)[O-])cc12 | > 100 µM | > 100 µM | > 100 µM | > 90.5 µM | 98 µM | > 100 µM | > 100 µM | > 100 µM | > 100 µM | > 100 µM | – | – | –
11 | CCOC(=O)c1cn(CC)c2cc3c(cc2c1=O)CCS3(=O)=O | > 100 µM | > 100 µM | > 100 µM | > 100 µM | > 100 µM | > 100 µM | > 100 µM | > 100 µM | > 100 µM | > 100 µM | – | – | –
12 | NC(=O)CCC(NC(=O)c1cccc2c(=O)c3ccccc3[nH]c12)C(=O)O (centres undefined) | > 100 µM | > 100 µM | > 100 µM | > 100 µM | > 100 µM | > 100 µM | > 100 µM | > 100 µM | > 100 µM | > 100 µM | – | – | –
13 | CCOC(=O)C1=CC(C)(C(=O)OCC)Nc2c(nc(SC)n(C)c2=O)N1 (centres undefined) | > 10 µM | > 10 µM | > 10 µM | > 10 µM | > 10 µM | > 10 µM | > 10 µM | > 10 µM | > 10 µM | > 10 µM | – | – | –
14 | COC(=O)c1c(O)ccc2c1c1c(n2Cc2ccccn2)C(=O)c2ccccc2C1=O | 58.1 µM | > 100 µM | > 100 µM | > 100 µM | > 100 µM | > 100 µM | > 100 µM | > 100 µM | > 100 µM | > 100 µM | – | – | –
15 | CNC(=O)c1ccccc1[S+]1c2cccc3cccc(c23)C(=O)N1C (centres undefined) | > 100 µM | > 100 µM | > 100 µM | > 100 µM | > 100 µM | > 100 µM | > 100 µM | > 100 µM | > 100 µM | > 100 µM | – | – | –
16 | CSC1(SC)N2Cc3ccccc3N=C2C1(c1ccccc1)c1ccccc1 | > 100 µM | > 100 µM | > 100 µM | > 27.3 µM | > 46.9 µM | > 89 µM | > 100 µM | > 100 µM | > 58.1 µM | > 44.9 µM | – | – | –
17 | NNC(=O)CCC(NS(=O)(=O)c1ccc(Cl)cc1)C(=O)NN (centres undefined) | > 100 µM | > 100 µM | > 100 µM | > 100 µM | > 100 µM | > 100 µM | > 100 µM | > 100 µM | > 100 µM | > 100 µM | – | – | –

Row | Structure (SMILES) | TGI (ACHN renal) | TGI (HCT-116 colon) | TGI (M14 melanoma) | TGI (HOP-92 NSCLC) | TGI (A498 renal) | TGI (EKVX NSCLC) | TGI (UO-31 renal) | TGI (HCT-15 colon) | TGI (SK-MEL-2 melanoma) | TGI (MOLT-4 leukemia) | GI50 (HCT-116 colon) | GI50 (HOP-92 NSCLC) | GI50 (A498 renal)
18 | COC12OC3CC4(C)C(=CC3OC(OC(C)C1O)C2O)CCC1C4CCC2(C)C(c3ccc(=O)oc3)CCC12O (centres undefined) | 0.00449 µM | 0.00193 µM | 0.00497 µM | 0.0347 µM | 0.0144 µM | < 0.001 µM | 0.00457 µM | 0.00553 µM | 0.00448 µM | < 0.001 µM | – | – | –
19 | Cn1c(N=[N+]=[N-])cc(=O)n(C)c1=O | > 100 µM | > 100 µM | > 100 µM | > 100 µM | > 100 µM | > 100 µM | > 100 µM | > 100 µM | > 100 µM | > 100 µM | – | – | –
20 | COc1ccc2oc(=Nc3ccc(F)cc3)c(C(N)=O)cc2c1 | > 100 µM | > 100 µM | > 100 µM | 95.5 µM | 58.7 µM | > 100 µM | > 100 µM | > 100 µM | 74.7 µM | > 100 µM | – | – | –
21 | COc1ccc(N2C(N)=C(C#N)C(C#N)(C#N)C2c2cccc([N+](=O)[O-])c2)cc1 (centres undefined) | 27.4 µM | 23.8 µM | 35.6 µM | 26.2 µM | 29.9 µM | 39.7 µM | 31.3 µM | 30.3 µM | 33.2 µM | 25.7 µM | – | – | –
22 | COc1ccc(-c2nnc(-c3ccncc3)o2)cc1 | > 100 µM | > 100 µM | > 100 µM | > 100 µM | > 100 µM | > 100 µM | > 100 µM | > 100 µM | > 100 µM | > 100 µM | – | – | –
23 | CCNc1cc2c3c(c1)CCCN3CCC2 | 63.1 µM | 19.2 µM | 63.7 µM | 44.4 µM | 65.3 µM | 48.4 µM | > 100 µM | 40.5 µM | 30 µM | 50.6 µM | – | – | –
24 | CCCCC1(N=[N+]=[N-])C(=O)C2C=CC=C3c4ccccc4N(C1=O)C32 (centres undefined) | > 31.6 µM | > 31.6 µM | > 31.6 µM | > 10 µM | > 10 µM | > 31.6 µM | > 31.6 µM | > 31.6 µM | 21.5 µM | > 31.6 µM | – | – | –
25 | COC(=O)C(Cc1ccccc1)NC(=O)c1ccc(CNC(=S)NCc2cccc(CNC(=S)NCc3ccccc3)c2)cc1 (centres undefined) | > 62.5 µM | > 62.5 µM | > 62.5 µM | > 62.5 µM | > 62.5 µM | > 62.5 µM | > 62.5 µM | > 62.5 µM | > 62.5 µM | > 62.5 µM | – | – | –
26 | COc1ccc2c(c1)CC1(O)COc3cc(OC)ccc3C1O2 (centres undefined) | > 100 µM | > 100 µM | > 100 µM | > 100 µM | > 100 µM | > 100 µM | > 100 µM | > 100 µM | > 100 µM | > 100 µM | – | – | –
27 | CC(O)c1cc2c(s1)C(=O)c1scc(C(C)O)c1C2=O (centres undefined) | 2.47 µM | 2.64 µM | 0.442 µM | 7.07 µM | 4.36 µM | 2.93 µM | 1.41 µM | 1.13 µM | 0.606 µM | 5.4 µM | – | – | –
28 | Cc1ccc(C(=O)C2=CN=C3C(=O)N(c4ccccc4)N(C)C3(C)C2=N)cc1 (centres undefined) | > 100 µM | > 100 µM | > 100 µM | > 100 µM | > 100 µM | > 100 µM | > 100 µM | > 100 µM | > 100 µM | > 100 µM | – | – | –
29 | COc1ccc(CCNC(=O)CCCCCO)cc1OC | > 100 µM | > 100 µM | > 100 µM | > 100 µM | > 100 µM | > 100 µM | > 100 µM | > 100 µM | > 100 µM | > 100 µM | – | – | –
30 | CCOC(=O)Cn1nnc2cc(Nc3nc4ccccc4nc3C(=O)OCC)ccc21 | > 100 µM | > 100 µM | > 100 µM | 50 µM | > 100 µM | > 100 µM | 19.4 µM | > 100 µM | > 100 µM | > 100 µM | – | – | –
31 | COc1cc2cc3c4c(cc(OC)c(OC)c4c2cc1OC)CCN3C(=O)N(C)C | > 100 µM | > 100 µM | > 10 µM | > 100 µM | > 100 µM | > 100 µM | > 100 µM | > 100 µM | > 100 µM | > 100 µM | – | – | –
32 | CN(C)CCNC(=O)c1cccc2[nH]c(-c3ccncc3)nc12 | 28.4 µM | 9.82 µM | 3.39 µM | 20.7 µM | 19.8 µM | 73.7 µM | 6.76 µM | 10.4 µM | 11.5 µM | > 100 µM | – | – | –
33 | COC(=O)[C@@]12OC[C@]34C([C@@H](O)C1O)[C@@]1(C)CC(=O)C(O)=C(C)C1C[C@H]3OC(=O)[C@H](OC(=O)/C=C(/c1ccccc1)C(F)(F)F)[C@H]42 (some centres undefined) | 17.5 µM | 12.3 µM | 8.48 µM | 17.1 µM | 8.45 µM | > 25 µM | > 25 µM | > 25 µM | > 25 µM | 13.8 µM | – | – | –
34 | CCCCCC(O)(CCCCC)CCCCCCCCC1=C(O)c2ccccc2C(=O)C1=O | > 100 µM | 15.2 µM | 24.8 µM | 33.6 µM | 21.5 µM | 60.1 µM | 28 µM | 15.6 µM | 27.7 µM | 12.4 µM | – | – | –
